{"source": "patent EP0317544A1", "about": "“Method of modifying the micro environment of an enzyme by cross-linking the peptidic molecules, use thereof for making enzymatic reactors requiring the regeneration of the cofactor” (priority 1987, dated 1989)", "key": {"[1]": {"molecular_target": "alcool déshydrogénase (ADH), préparation ADH-LYS (polylysine, forme soluble) (Saccharomyces cerevisiae, UniProt P00330)", "sequence (P00330 2-348)": "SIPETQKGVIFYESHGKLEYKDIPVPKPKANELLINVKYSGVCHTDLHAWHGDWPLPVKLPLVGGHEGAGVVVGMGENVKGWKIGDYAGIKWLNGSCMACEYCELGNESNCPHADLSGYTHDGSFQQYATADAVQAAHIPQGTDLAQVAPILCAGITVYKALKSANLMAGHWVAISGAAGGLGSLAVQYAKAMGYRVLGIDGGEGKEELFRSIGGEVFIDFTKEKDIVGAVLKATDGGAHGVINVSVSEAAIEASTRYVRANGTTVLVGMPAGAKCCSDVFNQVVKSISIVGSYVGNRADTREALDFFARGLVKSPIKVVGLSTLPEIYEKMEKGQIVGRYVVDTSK", "assay": "Two-substrate ordered kinetics of alcohol dehydrogenase, soluble polylysine-grafted preparation", "type": "biochemical", "details": "compared with the other soluble preparations", "text": "(§1) L'alcool déshydrogénase étant un enzyme suivant une réaction ordonnée à deux substrats, sa cinétique répond à l'équation : [formula] Ka et Kb sont les constantes de type Michaelis-Menten correspondant à la dissociation du complexe ternaire du NAD⁺ et de l'éthanol alors que Kia représente la constante de dissociation du complexe binaire ADH-NAD⁺ (Wratten et Cleland, 1963, Biochemistry 2, 935-941).\n(§2) Les valeurs des constantes pour les diverses préparations sont donnés au tableau 3. Nous ne pouvons pas ici interpréter chacune de ces valeurs et nous nous limiterons aux variations les plus importantes. En ce qui concerne le Kia, rappelons que plus le Kia est petit, plus l'affinité de l'enzyme pour la fixation de son premier substrat, le NAD⁺ est grande. Nous remarquons peu de variation pour les préparations solubles excepté pour la polylysine. […] Il faut aussi tenir compte de la charge positive de la lysine qui pourrait inhiber la diffusion du NAD⁺. Dans le cas de Ka et Kb, la fixation des peptides sur l'enzyme augmente les constantes, c'est-à-dire diminue l'affinité de fixation de ces substrats sur les complexes quaternaires de l'enzyme. Dans le cas des enzymes incorporés dans le gel, on constate aussi certains changements mais il faut en plus de l'effet du micro-environnement tenir compte des effets de diffusion. […]"}, "[2]": {"molecular_target": "alcool déshydrogénase (ADH), préparation ADH-LYS-PAA (poly-lysine-résine, forme immobilisée) (Saccharomyces cerevisiae, UniProt P00330)", "sequence (P00330 2-348)": "as above", "assay": "Two-substrate ordered kinetics of alcohol dehydrogenase, polylysine-grafted preparation copolymerised in polyacrylamide gel", "type": "biochemical", "details": "enzyme incorporated in polyacrylamide gel; apparent value, diffusion effects", "text": "as §1, §2"}}, "data": [{"smiles": "NC(=O)c1ccc[n+]([C@@H]2O[C@H](COP(=O)([O-])OP(=O)(O)OC[C@H]3O[C@@H](n4cnc5c(N)ncnc54)[C@H](O)[C@@H]3O)[C@@H](O)[C@H]2O)c1", "note": "[NAD⁺]", "values": [{"measurement": "Kia (constante de dissociation du complexe binaire ADH-NAD⁺)", "setting": "[1]", "result": "baisse d'affinité"}, {"measurement": "Kia (constante de dissociation du complexe binaire ADH-NAD⁺)", "setting": "[2]", "result": "très faible"}]}]}
